According to patent US20250290117A1, “MOLECULAR PHENOTYPIC ANTIMICROBIAL SUSCEPTIBILITY TESTING” (priority 2024, published 2025):

Tests used:
[1] = system: pathogens of clinical samples; assay: Molecular phenotypic antimicrobial susceptibility test of clinical samples, direct PCR without a separate DNA purification step (Table 6); format: cell-based
Summary of the method: (§1)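 Patient specimens in boric acid were grown in culture medium, adjusted to 0.5 McFarland by optical density, then incubated 12-16 hours with antimicrobials in Mueller Hinton Broth at breakpoint concentrations. Growth was read by semi-quantitative PCR, alongside a no-antimicrobial well for pathogen load.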

[2] = system: Escherichia coli; assay: Molecular phenotypic antimicrobial susceptibility test (extraction or DNA purification prior to PCR); format: cell-based
Summary of the method: as §1

[3] = system: E. coli; assay: Molecular phenotypic antimicrobial susceptibility test, specimen with two detected pathogens incubated together without isolation; format: cell-based, Escherichia coli; settings: E. coli in specimen with two detected pathogens (E. coli and M. morganii) incubated together; for Ct of Sensitive Breakpoint: Ct of controls (average) 15.93; for Molecular Antimicrobial Susceptibility Result: at sensitive breakpoint
Summary of the method: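 Specimen in boric acid; pathogens identified by PCR while a parallel aliquot grew 4-6 h in liquid medium. With >10,000 cells/mL detected, culture diluted to 0.5 McFarland and exposed to antimicrobials in broth (e.g. Mueller Hinton) at breakpoint concentrations; both pathogens incubated together unisolated, growth read by molecular methods against medium-only wells.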

[4] = system: E. coli; assay: Molecular phenotypic antimicrobial susceptibility test with direct PCR (no extraction DNA purification step); format: cell-based, Escherichia coli
[5] = E. coli, clinical sample of r10-r24
[6] = E. coli, clinical sample of r10-r24, Ct control avg 12.97
[7] = E. coli, clinical sample of r158-r172
[8] = E. coli, clinical sample of r158-r172, Ct control avg 12.894
[9] = K. aerogenes, clinical sample of r136-r150
[10] = K. aerogenes, clinical sample of r136-r150, Ct control avg 13.854
[11] = K. pneumoniae, clinical sample of r121-r135
[12] = K. pneumoniae, clinical sample of r121-r135, Ct control avg […]
[13] = M. morganii, clinical sample of r55-r69
[14] = M. morganii, clinical sample of r55-r69, Ct control avg 12.09
[15] = M. morganii, clinical sample of r70-r84
[16] = M. morganii, clinical sample of r70-r84, Ct control avg 11.677
[17] = P. mirabilis, clinical sample of r25-r39
[18] = P. mirabilis, clinical sample of r25-r39, Ct control avg 11.801
[19] = P. mirabilis, clinical sample of r40-r54
[20] = P. mirabilis, clinical sample of r40-r54, Ct control avg 10.06
[21] = E. coli isolate 1, Ct at control (average) 21.238
[22] = E. coli isolate 1, at sensitive breakpoint
[23] = E. coli isolate 2, Ct at control (average) 21.270
[24] = E. coli isolate 2, at sensitive breakpoint
[25] = E. coli isolate 3, Ct at control (average) 22.0995
[26] = E. coli isolate 3, at sensitive breakpoint
[27] = E. coli isolate JJ1887, direct PCR, Ct at control (average) 12.832
[28] = E. coli isolate JJ1887, direct PCR, at sensitive breakpoint

`C[C@@H](O)[C@H]1C(=O)N2C(C(=O)O)=C(S[C@@H]3CN[C@H](C(=O)N(C)C)C3)[C@H](C)[C@H]12` [Meropenem] was tested, and the “Molecular Antibiotic Susceptibility Result” value [1, 5] was “Sensitive (Antimicrobial wells with pathogen load detected below the control wells (typically >2 cycle thresholds later) may be reported as Sensitive)”, the Ct [1, 6] was 24.598 and the “Molecular Antibiotic Susceptibility Result” value [1, 7] was “Sensitive (Antimicrobial wells with pathogen load detected below the control wells (typically >2 cycle thresholds later) may be reported as Sensitive)”. For the same molecule, the Ct [1, 8] was 30.093, the “Molecular Antibiotic Susceptibility Result” value [1, 9] was “Sensitive (Antimicrobial wells with pathogen load detected below the control wells (typically >2 cycle thresholds later) may be reported as Sensitive)” and the Ct [1, 10] was 28.604. For the same molecule, the “Molecular Antibiotic Susceptibility Result” value [1, 11] was “Sensitive (Antimicrobial wells with pathogen load detected below the control wells (typically >2 cycle thresholds later) may be reported as Sensitive)”, the Ct [1, 12] was 26.606 and the “Molecular Antibiotic Susceptibility Result” value [1, 13] was “Sensitive (Antimicrobial wells with pathogen load detected below the control wells (typically >2 cycle thresholds later) may be reported as Sensitive)”. The Ct [1, 14] was 30.024, the “Molecular Antibiotic Susceptibility Result” value [1, 15] was “Sensitive (Antimicrobial wells with pathogen load detected below the control wells (typically >2 cycle thresholds later) may be reported as Sensitive)” and the Ct [1, 16] was 29.381. For the same molecule, the “Molecular Antibiotic Susceptibility Result” value [1, 17] was “Sensitive (Antimicrobial wells with pathogen load detected below the control wells (typically >2 cycle thresholds later) may be reported as Sensitive)”, the Ct [1, 18] was 32.513 and the “Molecular Antibiotic Susceptibility Result” value [1, 19] was “Sensitive (Antimicrobial wells with pathogen load detected below the control wells (typically >2 cycle thresholds later) may be reported as Sensitive)”. For the same molecule, the Ct [1, 20] was 31.805, the “Ct at Sensitive Breakpoint” value [2, 21] was 33.626 and the “Molecular Antimicrobial Susceptibility Result” value [2, 22] was “Sensitive (Antimicrobial wells with pathogen load detected below the control wells (typically >2 cycle thresholds later) may be reported as Sensitive)”. For the same molecule, the “Ct at Sensitive Breakpoint” value [2, 23] was 29.525, the “Molecular Antimicrobial Susceptibility Result” value [2, 24] was “Sensitive (Antimicrobial wells with pathogen load detected below the control wells (typically >2 cycle thresholds later) may be reported as Sensitive)” and the “Ct at Sensitive Breakpoint” value [2, 25] was 23.588. For the same molecule, the “Molecular Antimicrobial Susceptibility Result” value [2, 26] was “Sensitive (Antimicrobial wells with pathogen load detected below the control wells (typically >2 cycle thresholds later) may be reported as Sensitive)”, the “Ct of Sensitive Breakpoint” value [3] was 25.70 and the “Molecular Antimicrobial Susceptibility Result” value [3] was “Sensitive (Antimicrobial wells with pathogen load detected below the control wells (typically >2 cycle thresholds later) may be reported as Sensitive)”. The “Ct at Sensitive Breakpoint” value [4, 27] was 25.055 and the “Molecular Antimicrobial Susceptibility Result” value [4, 28] was “Sensitive (Antimicrobial wells with pathogen load detected below the control wells (typically >2 cycle thresholds later) may be reported as Sensitive)”.

With Gentamicin the “Molecular Antibiotic Susceptibility Result” value [1, 5] was “Sensitive (Antimicrobial wells with pathogen load detected below the control wells (typically >2 cycle thresholds later) may be reported as Sensitive)”, the Ct [1, 6] was 23.559 and the “Molecular Antibiotic Susceptibility Result” value [1, 7] was “Sensitive (Antimicrobial wells with pathogen load detected below the control wells (typically >2 cycle thresholds later) may be reported as Sensitive)”. The Ct [1, 8] was 28.667, the “Molecular Antibiotic Susceptibility Result” value [1, 9] was “Sensitive (Antimicrobial wells with pathogen load detected below the control wells (typically >2 cycle thresholds later) may be reported as Sensitive)” and the Ct [1, 10] was 31.347. For the same molecule, the “Molecular Antibiotic Susceptibility Result” value [1, 11] was “Sensitive (Antimicrobial wells with pathogen load detected below the control wells (typically >2 cycle thresholds later) may be reported as Sensitive)”, the Ct [1, 12] was 23.5 and the “Molecular Antibiotic Susceptibility Result” value [1, 13] was “Sensitive (Antimicrobial wells with pathogen load detected below the control wells (typically >2 cycle thresholds later) may be reported as Sensitive)”. The Ct [1, 14] was 32.648, the “Molecular Antibiotic Susceptibility Result” value [1, 15] was “Sensitive (Antimicrobial wells with pathogen load detected below the control wells (typically >2 cycle thresholds later) may be reported as Sensitive)” and the Ct [1, 16] was 30.206. The “Molecular Antibiotic Susceptibility Result” value [1, 17] was “Sensitive (Antimicrobial wells with pathogen load detected below the control wells (typically >2 cycle thresholds later) may be reported as Sensitive)”, the Ct [1, 18] was 22.67 and the “Molecular Antibiotic Susceptibility Result” value [1, 19] was “Sensitive (Antimicrobial wells with pathogen load detected below the control wells (typically >2 cycle thresholds later) may be reported as Sensitive)”. For the same molecule, the Ct [1, 20] was 30.321, the “Molecular Antibiotic Susceptibility Result” value ([1]; S. aureus, clinical sample of r85-r92) was “Sensitive (Antimicrobial wells with pathogen load detected below the control wells (typically >2 cycle thresholds later) may be reported as Sensitive)” and the Ct ([1]; S. aureus, clinical sample of r85-r92, Ct control avg 20.309) was 31.422. For the same molecule, the “Ct at Sensitive Breakpoint” value [2, 21] was 22.585, the “Molecular Antimicrobial Susceptibility Result” value [2, 22] was “Resistant” and the “Ct at Sensitive Breakpoint” value [2, 23] was 24.165. For the same molecule, the “Molecular Antimicrobial Susceptibility Result” value [2, 24] was “Sensitive (Antimicrobial wells with pathogen load detected below the control wells (typically >2 cycle thresholds later) may be reported as Sensitive)”, the “Ct at Sensitive Breakpoint” value [2, 25] was 25.112 and the “Molecular Antimicrobial Susceptibility Result” value [2, 26] was “Sensitive (Antimicrobial wells with pathogen load detected below the control wells (typically >2 cycle thresholds later) may be reported as Sensitive)”. The “Ct at Sensitive Breakpoint” value ([2]; E. coli isolate 4, Ct at control (average) 17.5733) was 22.64, the “Molecular Antimicrobial Susceptibility Result” value ([2]; E. coli isolate 4, at sensitive breakpoint) was “Sensitive (Antimicrobial wells with pathogen load detected below the control wells (typically >2 cycle thresholds later) may be reported as Sensitive)” and the “Ct at Sensitive Breakpoint” value ([2]; E. coli isolate 5, Ct at control (average) 21.0933) was 25.77. The “Molecular Antimicrobial Susceptibility Result” value ([2]; E. coli isolate 5, at sensitive breakpoint) was “Sensitive (Antimicrobial wells with pathogen load detected below the control wells (typically >2 cycle thresholds later) may be reported as Sensitive)”, the “Ct of Sensitive Breakpoint” value [3] was 17.37 and the “Molecular Antimicrobial Susceptibility Result” value [3] was “Resistant”. For the same molecule, the “Molecular Antimicrobial Susceptibility Result” value ([4]; E. coli #1 - WDCM 00090 - 6.2×E3, specimen with <10,000 cells/mL, direct PCR after 16 hours of incubation) was “Sensitive (Antimicrobial wells with pathogen load detected below the control wells (typically >2 cycle thresholds later) may be reported as Sensitive)”, the “Ct at Sensitive Breakpoint” value ([4]; E. coli #1 - WDCM 00090 - 6.2×E3, specimen with <10,000 cells/mL, direct PCR after 16 hours of incubation, Ct at control 13.787) was 28.57 and the “Molecular Antimicrobial Susceptibility Result” value ([4]; E. coli #2 - WDCM 00090 - 6.2×E3, specimen with <10,000 cells/mL, direct PCR after 16 hours of incubation) was “Sensitive (Antimicrobial wells with pathogen load detected below the control wells (typically >2 cycle thresholds later) may be reported as Sensitive)”. For the same molecule, the “Ct at Sensitive Breakpoint” value ([4]; E. coli #2 - WDCM 00090 - 6.2×E3, specimen with <10,000 cells/mL, direct PCR after 16 hours of incubation, Ct at control 13.46) was 28.70, the “Ct at Sensitive Breakpoint” value [4, 27] was 12.308 and the “Molecular Antimicrobial Susceptibility Result” value [4, 28] was “Resistant”.
